# Experimental data reported in patent US6737431B2 (Bristol-Myers Squibb Company, priority 2002, dated 2004).
# Key:
# melatonin ML1b receptor = molecular target: T1, melatonin ML1b receptor (Homo sapiens, UniProt P49286); assay: Melatonergic receptor binding, 2-[125I]-iodomelatonin, ML1b; conditions: NIH-3T3 membranes, 0.2 nM 2-[125I]-iodomelatonin, 37° C. 1 hour
# T1 construct: expressed in transfected cells; membrane homogenates
# T1 sequence (P49286 1-362): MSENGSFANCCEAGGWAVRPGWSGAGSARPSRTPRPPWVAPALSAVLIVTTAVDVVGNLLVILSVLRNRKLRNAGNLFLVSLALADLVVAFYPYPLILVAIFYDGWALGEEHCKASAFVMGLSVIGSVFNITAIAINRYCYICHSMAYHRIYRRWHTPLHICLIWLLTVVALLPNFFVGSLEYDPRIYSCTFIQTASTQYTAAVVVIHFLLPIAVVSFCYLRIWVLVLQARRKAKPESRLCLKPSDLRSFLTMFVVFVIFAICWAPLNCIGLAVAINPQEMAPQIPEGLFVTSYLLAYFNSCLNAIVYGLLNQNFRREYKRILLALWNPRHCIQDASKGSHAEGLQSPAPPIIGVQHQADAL
# Protocol: (§1) Melatonergic Receptor Binding Activity
# (§2) (a) TME=50 mM Tris buffer containing 12.5 mM MgCl2, and 2 mM EDTA, pH 7.4 at 37° C., with concentrated HCl.
# (§3) (b) Wash buffer: 20 mM Tris base containing 2 mM MgCl2, pH 7.4 at room temperature.
# (§4) (c) 10^−4 M melatonin (10^−5 M final concentration).
# (e) 2-[^125I]-iodomelatonin ML1b, 0.2 nM final concentration.
# (§5) 2. Membrane Homogenates: The melatonin ML1a and ML1b receptors cDNA were individually subcloned into pcDNA3 and introduced into NIH-3T3 cells using Lipofectamine. Transformed NIH-3T3 cells resistant to geneticin (G-418) were isolated, and single colonies expressing high levels of 2[^125I]-iodomelatonin binding were isolated. Cells are maintained in DMEM supplemented with 10% calf serum and G-418 (0.5 g/liter). Cells are grown to confluency in T-175 flasks, scraped using Hank's balanced salt solution, and frozen at −80° C. For preparing membrane homogenates, pellets are thawed on ice, and re-suspended in TME buffer in the presence of 10 μg/ml aprotinin and leupeptin, and 100 μM phenylmethylsulfonylfluoride. The cells were then homogenized using a dounce homogenizer, and centrifuged. The resulting pellet was re-suspended with dounce homogenizer in TME (supplemented with the above protease inhibitors) and frozen. On the day of assay, a small aliquot was thawed on ice and re-suspended in the ice cold TME (1:50-1:100 v/v) and held on ice until assayed.
# (§6) 3. Incubation: 37° C. for 1 hour. Reaction is terminated by filtration. Filters were washed 3 times.
# (§7) 4. References: Reppert, S. M. et al., Neuron, 13, p. 1177-1185 (1994); and Reppert, S. M. et al., Proc. Natl. Acad. Sci. USA, 92, p. 8734-8738 (1995).
# (§8) The compounds of the present invention have affinity for receptors of the endogenous pineal hormone, melatonin, as determined in receptor binding assays described above in Tables I to III for the ML1a and ML1b (human) receptors. Melatonin is involved in the regulation of a variety of biological rhythms and exerts its biological effects via interaction with specific receptors. There is evidence that administration of melatonin agonists are of clinical utility in the treatment of various conditions regulated by melatonin activity. Such conditions include depression, jet-lag, work-shift syndrome, sleep disorders, glaucoma, some disorders associated with reproduction, cancer benign prostatic hyperplasia, immune disorders, and neuroendocrine disorders.
# melatonin ML1a receptor = molecular target: T2, melatonin ML1a receptor (Homo sapiens, UniProt P48039); assay: Melatonergic receptor binding, 2-[125I]-iodomelatonin, ML1a; conditions: NIH-3T3 membranes, 0.1 nM 2-[125I]-iodomelatonin, 37° C. 1 hour
# T2 construct: expressed in transfected cells; membrane homogenates
# Protocol: as §1, §2, §3, §4
# (d) 2-[^125I]-iodomelatonin ML1a, 0.1 nM final concentration.
# as §5, §6, §7, §8
# T2 sequence (P48039 whole entry): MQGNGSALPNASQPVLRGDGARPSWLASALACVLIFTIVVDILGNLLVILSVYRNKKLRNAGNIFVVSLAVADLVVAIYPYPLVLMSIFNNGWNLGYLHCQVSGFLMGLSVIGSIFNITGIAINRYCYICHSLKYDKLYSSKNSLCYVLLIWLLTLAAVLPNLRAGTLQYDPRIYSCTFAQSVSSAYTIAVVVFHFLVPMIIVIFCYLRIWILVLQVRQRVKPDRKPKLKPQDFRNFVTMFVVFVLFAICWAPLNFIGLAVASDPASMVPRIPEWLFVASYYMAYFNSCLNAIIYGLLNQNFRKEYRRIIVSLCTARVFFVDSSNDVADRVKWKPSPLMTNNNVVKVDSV
SMILES,IC50 (melatonin ML1b receptor; Table I) [nM],IC50 (melatonin ML1a receptor; Table I) [nM],IC50 (melatonin ML1b receptor; Table II) [nM],IC50 (melatonin ML1a receptor; Table II) [nM]
"CC(C)c1nc2cccc(CCCNC(=O)C3CC3)c2o1 [Example 38, Cyclopropyl-N-{3-[2-(methylethyl)benzoxazol-7-yl]propyl}carboxamide]",> 250,10 to 250,,
"CCNC(=O)NCCCc1cccc2nc(C(C)C)oc12 [Example 39, (Ethylamino)-N-{3-[2-(methylethyl)benzoxazol-7-yl]propyl}carboxamide]",10 to 250,> 250,,
CCc1nc2cc(Br)cc(CCCNC(=O)OC(C)(C)C)c2o1 [Example 40],,,> 250,10 to 250
"C=Cc1ccc2nc(CC)oc2c1CCCNC(=O)OC(C)(C)C [Example 41, N-t-Butoxycarbonyl 7-(3-aminopropyl)-6-vinyl-2-ethylbenzoxazole]",,,> 250,> 250
"CCc1nc2ccc(Br)c(CCCNC(C)=O)c2o1 [Example 42, N-Acetyl-7-(3-aminopropyl)-6-bromo-2-ethylbenzoxazole]",,,< 10,10 to 250
"C=Cc1ccc2nc(CC)oc2c1CCCNC(C)=O [Example 43, N-Acetyl-7-(3-aminopropyl)-6-vinyl-2-ethylbenzoxazole]",,,< 10,10 to 250
"CCc1nc2ccc(C)c(CCCNC(C)=O)c2o1 [Example 44, N-[3-(2-Ethyl-6-methylbenzoxazol-7-yl)propyl]acetamide]",,,10 to 250,10 to 250
"CCc1nc2ccc(C)c(CCCNC(=O)c3ccccc3)c2o1 [Example 45, N-[3-(2-Ethyl-6-methylbenzoxazol-7-yl)propyl]benzamide]",,,10 to 250,10 to 250
"CCc1nc2ccc(C)c(CCCNC(=O)C3CC3)c2o1 [Example 46, Cyclopropyl-N-[3-(2-ethyl-6-methylbenzoxazol-7-yl)propyl]carboxamide]",,,< 10,< 10
"CCc1nc2ccc(-c3ccc(F)cc3)c(CCCNC(C)=O)c2o1 [Example 47, N-{3-[2-Ethyl-6-(4-fluorophenyl)benzoxazol-7-yl]propyl}acetamide]",,,< 10,10 to 250
"CCc1nc2ccc(-c3ccc(F)cc3)c(CCCNC(=O)c3ccccc3)c2o1 [Example 48, N-{3-[2-Ethyl-6-(4-fluorophenyl)benzoxazol-7-yl]propyl}benzamide]",,,10 to 250,> 250
"CCc1nc2ccc(-c3ccc(F)cc3)c(CCCNC(=O)C3CC3)c2o1 [Example 49, Cyclopropyl-N-{3-[2-ethyl-6-(4-fluorophenyl)benzoxazol-7-yl]propyl}carboxamide]",,,< 10,10 to 250
"CCc1nc2ccc(-c3ccc(C(F)(F)F)cc3)c(CCCNC(C)=O)c2o1 [Example 50, N-(3-{2-Ethyl-6-[4-(trifluoromethyl)phenyl]benzoxazol-7-yl}propyl)acetamide]",,,10 to 250,> 250
"CCc1nc2ccc(-c3ccc(C(F)(F)F)cc3)c(CCCNC(=O)C3CC3)c2o1 [Example 51, Cyclopropyl-N-(3-{2-ethyl-6-[4-(trifluoromethyl)phenyl]benzoxazol-7-yl}propyl)carboxamide]",,,10 to 250,> 250
"CCc1nc2ccc(-c3ccc(OC)cc3)c(CCCNC(C)=O)c2o1 [Example 52, N-{3-[2-Ethyl-6-(4-methoxyphenyl)benzoxazol-7-yl]propyl}acetamide]",,,< 10,10 to 250
"CCc1nc2ccc(-c3ccc(OC)cc3)c(CCCNC(=O)c3ccccc3)c2o1 [Example 53, N-{3-[2-Ethyl-6-(4-methoxyphenyl)benzoxazol-7-yl]propyl}benzamide]",,,> 250,> 250
"CCc1nc2ccc(-c3ccc(OC)cc3)c(CCCNC(=O)C3CC3)c2o1 [Example 54, Cyclopropyl-N-{3-[2-ethyl-6-(4-methoxyphenyl)benzoxazol-7-yl]propyl}carboxamide]",,,10 to 250,> 250

SMILES,IC50 (melatonin ML1b receptor; Table I) [nM],IC50 (melatonin ML1a receptor; Table I) [nM],IC50 (melatonin ML1b receptor; Table II) [nM],IC50 (melatonin ML1a receptor; Table II) [nM]
"CCc1nc2ccc(-c3ccccc3)c(CCCNC(C)=O)c2o1 [Example 55, N-[3-(2-Ethyl-6-phenylbenzoxazol-7-yl)propyl]acetamide]",,,< 10,< 10
"CCc1nc2ccc(-c3ccccc3)c(CCCNC(=O)c3ccccc3)c2o1 [Example 56, N-[3-(2-Ethyl-6-phenylbenzoxazol-7-yl)propyl]benzamide]",,,10 to 250,10 to 250
"CCc1nc2ccc(-c3ccccc3)c(CCCNC(=O)C3CC3)c2o1 [Example 57, Cyclopropyl-N-[3-(2-ethyl-6-phenylbenzoxazol-7-yl)propyl]carboxamide]",,,< 10,10 to 250
"CCc1nc2cc(-c3ccc(F)cc3)cc(CCCNC(C)=O)c2o1 [Example 58, N-[3-(2-Ethyl-5-(4-fluorophenyl)benzoxazol-7-yl)propyl]acetamide]",,,10 to 250,10 to 250
"CCc1nc2cc(-c3ccc(F)cc3)cc(CCCNC(=O)c3ccccc3)c2o1 [Example 59, N-{3-[2-Ethyl-5-(4-fluorophenyl)benzoxazol-7-yl]propyl}benzamide]",,,> 250,> 250
"CCc1nc2cc(-c3ccc(F)cc3)cc(CCCNC(=O)C3CC3)c2o1 [Example 60, Cyclopropyl-N-{3-[2-ethyl-5-(4-fluorophenyl)benzoxazol-7-yl]propyl}carboxamide]",,,10 to 250,10 to 250
"CCc1nc2cc(-c3ccc(C(F)(F)F)cc3)cc(CCCNC(=O)c3ccccc3)c2o1 [Example 61, N-(3-{2-Ethyl-5-[4-(trifluoromethyl)phenyl]benzoxazol-7-yl}propyl)benzamide]",,,> 250,10 to 250
"CCc1nc2cc(-c3ccc(OC)cc3)cc(CCCNC(C)=O)c2o1 [Example 62, N-{3-[2-Ethyl-5-(4-methoxyphenyl)benzoxazol-7-yl]propyl}acetamide]",,,10 to 250,10 to 250
"CCc1nc2cc(-c3ccc(OC)cc3)cc(CCCNC(=O)c3ccccc3)c2o1 [Example 63, N-{3-[2-Ethyl-5-(4-methoxyphenyl)benzoxazol-7-yl]propyl}benzamide]",,,> 250,10 to 250
"CCc1nc2cc(-c3ccc(OC)cc3)cc(CCCNC(=O)C3CC3)c2o1 [Example 64, Cyclopropyl-N-{3-[2-ethyl-5-(4-methoxyphenyl)benzoxazol-7-yl]propyl}carboxamide]",,,> 250,> 250
"CCc1nc2cc(-c3ccccc3)cc(CCCNC(C)=O)c2o1 [Example 65, N-[3-(2-Ethyl-5-phenylbenzoxazol-7-yl)propyl]acetamide]",,,10 to 250,> 250
"CCc1nc2cc(-c3ccccc3)cc(CCCNC(=O)c3ccccc3)c2o1 [Example 66, N-[3-(2-Ethyl-5-phenylbenzoxazol-7-yl)propyl]benzamide]",,,> 250,> 250
"CCc1nc2cc(-c3ccccc3)cc(CCCNC(=O)C3CC3)c2o1 [Example 67, Cyclopropyl-N-[3-(2-ethyl-5-phenylbenzoxazol-7-yl)propyl]carboxamide]",,,> 250,10 to 250
"CCc1nc2cc(Br)cc(CCCNC(C)=O)c2o1 [Example 68, N-[3-(5-Bromo-2-ethylbenzoxazol-7-yl)propyl]acetamide]",,,10 to 250,> 250
"CCc1nc2cc(Br)cc(CCCNC(=O)c3ccccc3)c2o1 [Example 69, N-[3-(5-Bromo-2-ethylbenzoxazol-7-yl)propyl]benzamide]",,,> 250,> 250
"CCc1nc2cc(Br)cc(CCCNC(=O)C3CC3)c2o1 [Example 70, N-[3-(5-Bromo-2-ethylbenzoxazol-7-yl)propyl]cyclopropylcarboxamide]",,,10 to 250,> 250
